Assay results published in US8927580B2, “Thiosemicarbazone compounds and use in the treatment of cancer” (Oncochel Therapeutics LLC, priority 2010, dated 2015).
pIC50: −log10 of the molar value.

How the values were obtained:
[1] = tested on: SK-N-MC neuroepithelioma cell line; assay: MTT anti-proliferative assay in SK-N-MC cells; format: cell-based, human; conditions: Homo sapiens, 72 h at 37° C., mean±SD (3 experiments)
Experimental: The cells were maintained in minimum essential media (MEM; Invitrogen, CA, USA) which contained 10% fetal calf serum (FCS; JRH Biosciences, Kansas, USA), 1% non-essential amino acids (Gibco, Victoria, Australia), 1% penicillin/streptomycin/glutamine (Gibco, VIC, Australia) and fungizone ([…]; Squibb Pharmaceuticals, Montreal, Canada).
The ability of the compounds to inhibit cellular proliferation was assessed initially in SK-N-MC cells by the MTT assay.
Table 1. […] Cells were seed and allowed to attach to wells for 24 h and then incubated for 72 h at 37° C. with control medium or the chelators.

[2] = tested on: SK-N-MC neuroepithelioma cells; assay: Iron efflux assay (59Fe release from pre-labeled cells); format: cell-based, human; conditions: 25 μM chelator, 3 h at 37° C.
Experimental: The culture dishes were then placed on ice, the supernatant containing excess ^59Fe-Tf was aspirated and the cells washed 4 times with ice-cold PBS. […] After 3 h the culture dishes were again placed on ice, the media was collected in counting tubes and this provided a measurement of released ^59Fe. Ice-cold PBS (1 mL) was added to plates containing cells and cells were scraped from the plastic surface using a Teflon spatula and also collected in counting tubes. These tubes represent the intracellular ^59Fe content. Results are expressed as total ^59Fe released as a percentage of total ^59Fe present. Radioactivity was measured using a Wallac Wizard 3″ Gamma Counter (PerkinElmer, MA, USA).

[3] = tested on: SK-N-MC neuroepithelioma cells; assay: Iron uptake assay (59Fe uptake from 59Fe-transferrin); format: cell-based, human; conditions: 25 μM chelator, 3 h at 37° C., 59Fe-Tf
Experimental: Cells were cultured in the same way as for the iron efflux experiments. […] At the end of the incubation the culture dishes were placed on ice, the media aspirated, and the cells washed 4 times with ice cold PBS. Protease (1 mL; 1 mg/mL; Sigma-Aldrich, NSW, Australia) solution was added to each plate and allowed to incubate on ice for 30 min. This facilitated the removal of membrane bound ^59Fe-Tf. Cells were then scraped from the plastic surface using a Teflon spatula and collected in Eppendorf tubes. These were centrifuged at 10000 rpm and 4° C. for 3 min. The supernatant was then transferred into counting tubes and the cell pellet resuspended in PBS before also being transferred into another set of counting tubes. Radioactivity was measured using a Wallac Wizard 3″ Gamma Counter (PerkinElmer, MA, USA). Results are expressed as average ^59Fe content of the cellular fraction as a percentage of the control value.

[4] = tested on: DMS-53 human lung carcinoma; assay: DMS-53 xenograft in nude mice, i.v. administration: tumour growth; format: in vivo, nude mice (BALBc nu/nu); conditions: after 25 days, 4 or 6 mg/kg
[5] = tested on: DMS-53 human lung carcinoma; assay: DMS-53 xenograft in nude mice, oral gavage: tumour growth; format: in vivo, nude mice (BALBc nu/nu); conditions: for Tumour weight: 21 days; for net tumour size (% of initial tumour volume): after 21 days
[6] = DMS-53 xenograft oral study: body and organ weights, haematology, biochemistry, histology; format: in vivo, nude mice (BALBc nu/nu); conditions: for Alanine Aminotransferase (ALT) / Albumin / Alkaline Phosphatase (ALP) / Cholesterol / Haematocrit (HCT) / Haemoglobin (HGB) / Platelets / Serum Iron / Total Iron-Binding Capacity (TIBC) / Triglyceride / Unsaturated Iron-Binding Capacity (UIBC) / White Blood Cell (WBC): oral gavage 21 days; for Red Blood Cell (RBC): oral gavage for 21 days, 3 days/week; for Body weight (% initial) / Brain weight / Heart weight / Kidney weight / Liver weight / Lung weight / Spleen weight: oral

## CCN(C)C(=S)NN=C(c1ccccn1)c1ccccn1 [Dp4e4mT, di-2-pyridylketone 4-ethyl-4-methyl-3-thiosemicarbazone]
[1]
  pIC50: 8.39
[2]
  cellular 59Fe mobilised (59Fe released as percentage of total 59Fe): 38%
[3]
  cellular 59Fe uptake (% of the control): 12%
[4]
  net tumour size (% of the initial tumour volume): 120-122%
[5]; 2.5 mg/kg
  Tumour weight: 0.63 ± 0.17 g
[5]; 5 mg/kg
  Tumour weight: 0.89 ± 0.14 g
[5]; 7.5 mg/kg
  Tumour weight: 0.60 ± 0.15 g
  net tumour size (% of initial tumour volume): 404%
[5]; 10 mg/kg
  net tumour size (% of initial tumour volume): 284%
[6]; 2.5 mg/kg
  Alanine Aminotransferase (ALT): 73.1 U/L
  Albumin: 31.3 g/L
  Alkaline Phosphatase (ALP): 85.7 U/L
  Cholesterol: 2.44 mmol/L
  Haematocrit (HCT): 44%
  Haemoglobin (HGB): 148 g/L
  Platelets: 1047 10^9/L
  Serum Iron: 25.5 µmol/L
  Total Iron-Binding Capacity (TIBC): 56.7 µmol/L
  Triglyceride: 1.00 mmol/L
  Unsaturated Iron-Binding Capacity (UIBC): 57.9 µmol/L
  White Blood Cell (WBC): 2.68 10^9/L
  Red Blood Cell (RBC): 10.55 10^12/L
  Body weight (% initial): 94.1 ± 1.3 % initial
  Brain weight: 0.372 ± 0.006 g
  Heart weight: 0.078 ± 0.002 g
  Kidney weight: 0.194 ± 0.005 g
  Liver weight: 0.87 ± 0.02 g
  Lung weight: 0.121 ± 0.005 g
  Spleen weight: 0.075 ± 0.004 g
[6]; 5 mg/kg
  Alanine Aminotransferase (ALT): 44.9 U/L
  Albumin: 30.4 g/L
  Alkaline Phosphatase (ALP): 61.7 U/L
  Cholesterol: 2.63 mmol/L
  Haematocrit (HCT): 43%
  Haemoglobin (HGB): 143 g/L
  Platelets: 973 10^9/L
  Serum Iron: 31.0 µmol/L
  Total Iron-Binding Capacity (TIBC): 53.1 µmol/L
  Triglyceride: 0.57 mmol/L
  Unsaturated Iron-Binding Capacity (UIBC): 66.9 µmol/L
  White Blood Cell (WBC): 1.80 10^9/L
  Red Blood Cell (RBC): 10.26 10^12/L
  Body weight (% initial): 91.6 ± 2.4 % initial
  Brain weight: 0.367 ± 0.007 g
  Heart weight: 0.078 ± 0.002 g
  Kidney weight: 0.187 ± 0.006 g
  Liver weight: 0.77 ± 0.02 g
  Lung weight: 0.117 ± 0.003 g
  Spleen weight: 0.075 ± 0.004 g
[6]; 7.5 mg/kg
  Alanine Aminotransferase (ALT): 57.2 U/L
  Albumin: 31.3 g/L
  Alkaline Phosphatase (ALP): 87.2 U/L
  Cholesterol: 2.78 mmol/L
  Haematocrit (HCT): 45%
  Haemoglobin (HGB): 151 g/L
  Platelets: 834 10^9/L
  Serum Iron: 32.8 µmol/L
  Total Iron-Binding Capacity (TIBC): 56.8 µmol/L
  Triglyceride: 0.67 mmol/L
  Unsaturated Iron-Binding Capacity (UIBC): 64.9 µmol/L
  White Blood Cell (WBC): 3.08 10^9/L
  Red Blood Cell (RBC): 10.85 10^12/L
  Body weight (% initial): 91.6 ± 2.2 % initial
  Brain weight: 0.356 ± 0.007 g
  Heart weight: 0.092 ± 0.005 g
  Kidney weight: 0.193 ± 0.008 g
  Liver weight: 0.83 ± 0.03 g
  Lung weight: 0.119 ± 0.004 g
  Spleen weight: 0.061 ± 0.009 g
[6]; 10 mg/kg
  Alanine Aminotransferase (ALT): 63.4 U/L
  Albumin: 29.3 g/L
  Alkaline Phosphatase (ALP): 89.5 U/L
  Cholesterol: 2.46 mmol/L
  Haematocrit (HCT): 44%
  Haemoglobin (HGB): 142 g/L
  Platelets: 917 10^9/L
  Serum Iron: 21.2 µmol/L
  Total Iron-Binding Capacity (TIBC): 60.2 µmol/L
  Triglyceride: 0.94 mmol/L
  Unsaturated Iron-Binding Capacity (UIBC): 50.1 µmol/L
  White Blood Cell (WBC): 3.27 10^9/L
  Red Blood Cell (RBC): 10.18 10^12/L
